US9458137B2, “Substituted indol-5-ol derivatives and their therapeutical applications” (NantBioScience, Inc., priority 2012, dated 2016)

How the values were obtained:
Experiment in all cases: Kinase panel activity
Format in all cases: biochemical
Conditions in all cases: 0.1 μM, ATP Km
SAPK2a(h) = target: T1, SAPK2a(h) (Homo sapiens, UniProt Q16539)
T1 construct: purchased Millipore (KinaseProfiler service)
Procedure: (§1) The effect of NTW-3475 on kinase activity was tested for a wide range of kinases and is shown in Table 2: Summary Sheet, Activity % ATP Concentration: Km

EGFR(h) = target: T2, EGFR(h) (Homo sapiens, UniProt P00533)
T2 construct: purchased Millipore (KinaseProfiler service)
Procedure: as §1

Mer(h) = target: T3, Mer(h) (Homo sapiens, UniProt Q12866)
T3 construct: purchased Millipore (KinaseProfiler service)
Procedure: as §1

PKBβ(h) = PKBβ(h) (Homo sapiens, UniProt P31751)
Procedure: as §1

SGK2(h) = target: T4, SGK2(h) (Homo sapiens, UniProt Q9HBY8)
T4 construct: purchased Millipore (KinaseProfiler service)
T4 sequence (Q9HBY8 whole entry): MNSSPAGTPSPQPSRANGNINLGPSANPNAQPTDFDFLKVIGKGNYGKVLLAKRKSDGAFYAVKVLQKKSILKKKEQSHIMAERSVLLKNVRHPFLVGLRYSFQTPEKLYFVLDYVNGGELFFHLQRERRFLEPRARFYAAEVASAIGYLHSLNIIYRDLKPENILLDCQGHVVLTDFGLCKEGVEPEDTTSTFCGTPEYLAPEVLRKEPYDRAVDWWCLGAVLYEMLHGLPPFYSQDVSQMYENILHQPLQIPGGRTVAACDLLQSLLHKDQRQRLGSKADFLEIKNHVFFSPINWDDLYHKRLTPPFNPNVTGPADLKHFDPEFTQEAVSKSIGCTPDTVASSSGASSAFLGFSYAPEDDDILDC
Procedure: as §1

Pim-1(h) = Pim-1(h) (Homo sapiens, UniProt P11309)
Procedure: as §1

Lyn(h) = Lyn(h) (Homo sapiens, UniProt P07948)
Sequence of Lyn(h) (P07948 whole entry): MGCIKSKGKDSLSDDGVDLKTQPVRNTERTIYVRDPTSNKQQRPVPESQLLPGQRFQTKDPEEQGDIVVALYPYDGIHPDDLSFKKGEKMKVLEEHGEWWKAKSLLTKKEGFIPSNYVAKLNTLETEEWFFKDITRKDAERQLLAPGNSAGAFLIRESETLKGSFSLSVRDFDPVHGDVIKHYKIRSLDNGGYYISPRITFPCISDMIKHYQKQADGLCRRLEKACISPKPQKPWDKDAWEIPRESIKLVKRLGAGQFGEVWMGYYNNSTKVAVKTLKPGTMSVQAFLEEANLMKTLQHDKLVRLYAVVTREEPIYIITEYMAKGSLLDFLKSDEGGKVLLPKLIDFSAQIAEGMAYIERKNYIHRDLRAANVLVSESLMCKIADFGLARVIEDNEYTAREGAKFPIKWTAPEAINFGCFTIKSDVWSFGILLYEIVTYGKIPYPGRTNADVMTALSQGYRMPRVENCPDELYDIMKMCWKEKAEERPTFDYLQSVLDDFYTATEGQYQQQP
Procedure: as §1

CaMKIV(h) = CaMKIV(h) (Homo sapiens, UniProt Q16566)
Procedure: as §1

Rsk4(h) = target: T5, Rsk4(h) (Homo sapiens, UniProt Q9UK32)
T5 construct: purchased Millipore (KinaseProfiler service)
T5 sequence (Q9UK32 whole entry): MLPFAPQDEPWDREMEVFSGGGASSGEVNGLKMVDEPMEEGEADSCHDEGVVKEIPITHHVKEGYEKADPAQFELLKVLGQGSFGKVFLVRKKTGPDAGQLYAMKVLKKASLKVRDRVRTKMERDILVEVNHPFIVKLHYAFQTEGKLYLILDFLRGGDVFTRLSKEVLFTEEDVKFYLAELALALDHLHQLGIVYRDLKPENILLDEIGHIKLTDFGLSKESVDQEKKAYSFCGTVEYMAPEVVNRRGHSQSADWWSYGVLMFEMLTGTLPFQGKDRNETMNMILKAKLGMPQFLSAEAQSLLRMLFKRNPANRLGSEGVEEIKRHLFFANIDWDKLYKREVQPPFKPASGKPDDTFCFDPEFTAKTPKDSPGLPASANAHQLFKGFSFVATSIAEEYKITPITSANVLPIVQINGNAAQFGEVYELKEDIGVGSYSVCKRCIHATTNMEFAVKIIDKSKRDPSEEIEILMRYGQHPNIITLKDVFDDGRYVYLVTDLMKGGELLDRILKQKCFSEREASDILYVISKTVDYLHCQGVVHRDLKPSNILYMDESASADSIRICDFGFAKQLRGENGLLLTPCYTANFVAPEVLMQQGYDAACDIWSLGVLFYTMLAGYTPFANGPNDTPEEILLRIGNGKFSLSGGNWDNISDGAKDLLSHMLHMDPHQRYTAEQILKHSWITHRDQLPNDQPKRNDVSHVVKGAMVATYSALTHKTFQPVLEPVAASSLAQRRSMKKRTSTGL
Procedure: as §1

MLK1(h) = target: T6, MLK1(h) (Homo sapiens, UniProt P80192)
T6 construct: purchased Millipore (KinaseProfiler service)
T6 sequence (P80192 whole entry): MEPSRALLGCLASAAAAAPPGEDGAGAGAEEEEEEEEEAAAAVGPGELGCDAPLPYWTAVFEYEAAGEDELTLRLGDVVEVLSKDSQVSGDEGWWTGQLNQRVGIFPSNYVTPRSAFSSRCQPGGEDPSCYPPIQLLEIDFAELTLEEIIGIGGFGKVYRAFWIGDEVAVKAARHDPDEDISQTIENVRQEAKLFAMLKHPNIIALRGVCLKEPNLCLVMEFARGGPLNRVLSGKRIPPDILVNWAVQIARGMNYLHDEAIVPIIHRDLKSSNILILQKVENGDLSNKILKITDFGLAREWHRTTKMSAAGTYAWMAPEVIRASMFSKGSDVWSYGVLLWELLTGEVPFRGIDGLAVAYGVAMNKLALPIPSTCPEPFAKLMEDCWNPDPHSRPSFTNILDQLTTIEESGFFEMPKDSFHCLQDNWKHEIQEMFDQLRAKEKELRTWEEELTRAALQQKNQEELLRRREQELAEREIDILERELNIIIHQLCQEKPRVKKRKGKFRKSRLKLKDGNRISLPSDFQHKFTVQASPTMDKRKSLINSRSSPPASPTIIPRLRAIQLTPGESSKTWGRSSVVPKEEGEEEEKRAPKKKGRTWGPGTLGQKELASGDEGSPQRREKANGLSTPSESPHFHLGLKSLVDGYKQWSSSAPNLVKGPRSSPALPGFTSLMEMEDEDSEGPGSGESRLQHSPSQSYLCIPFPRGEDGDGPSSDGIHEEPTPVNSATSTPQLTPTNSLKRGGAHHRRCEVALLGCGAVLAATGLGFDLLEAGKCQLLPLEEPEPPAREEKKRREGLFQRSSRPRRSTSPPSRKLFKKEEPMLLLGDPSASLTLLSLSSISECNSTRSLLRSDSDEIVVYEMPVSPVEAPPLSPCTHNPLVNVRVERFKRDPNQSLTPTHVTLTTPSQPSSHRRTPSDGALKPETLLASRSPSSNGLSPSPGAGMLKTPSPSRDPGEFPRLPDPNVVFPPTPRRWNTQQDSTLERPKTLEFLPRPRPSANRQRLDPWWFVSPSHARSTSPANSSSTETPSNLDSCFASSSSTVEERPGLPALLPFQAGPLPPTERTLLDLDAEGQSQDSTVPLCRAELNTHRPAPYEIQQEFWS
Procedure: as §1

LIMK1(h) = LIMK1(h) (Homo sapiens, UniProt P53667)
Procedure: as §1

ALK4(h) = ALK4(h) (Homo sapiens, UniProt P36896)
Procedure: as §1

CDK9/cyclin T1(h) = CDK9/cyclin T1(h) (Homo sapiens, UniProt P50750)
Procedure: as §1

DCAMKL2(h) = DCAMKL2(h) (Homo sapiens, UniProt Q8N568)
Procedure: as §1

TrkA(h) = target: T7, TrkA(h) (Homo sapiens, UniProt P04629)
T7 construct: purchased Millipore (KinaseProfiler service)
Procedure: as §1

MST2(h) = MST2(h) (Homo sapiens, UniProt Q13188)
Procedure: as §1

ROCK-II(r) = target: T8, ROCK-II(r) (Rattus norvegicus, UniProt Q62868)
T8 construct: purchased Millipore (KinaseProfiler service)
Procedure: as §1

Src(1-530)(h) = target: T9, Src(1-530)(h) (Homo sapiens, UniProt P12931)
T9 construct: Src(1-530)(h); purchased Millipore (KinaseProfiler service)
T9 sequence (P12931 1-530): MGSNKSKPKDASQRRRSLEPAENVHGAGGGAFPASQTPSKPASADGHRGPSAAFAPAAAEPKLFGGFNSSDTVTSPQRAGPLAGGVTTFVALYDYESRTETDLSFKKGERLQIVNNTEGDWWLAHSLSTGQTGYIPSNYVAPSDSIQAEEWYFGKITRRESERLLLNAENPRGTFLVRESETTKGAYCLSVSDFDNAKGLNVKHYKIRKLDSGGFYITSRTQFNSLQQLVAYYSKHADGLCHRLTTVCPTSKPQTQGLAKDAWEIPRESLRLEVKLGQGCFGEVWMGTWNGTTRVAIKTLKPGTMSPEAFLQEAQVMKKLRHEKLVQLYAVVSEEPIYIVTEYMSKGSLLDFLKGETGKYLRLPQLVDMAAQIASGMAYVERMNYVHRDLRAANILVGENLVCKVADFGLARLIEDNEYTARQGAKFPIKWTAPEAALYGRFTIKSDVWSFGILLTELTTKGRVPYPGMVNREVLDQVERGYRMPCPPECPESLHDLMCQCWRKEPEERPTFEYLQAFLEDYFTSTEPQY
Procedure: as §1

EphB4(h) = target: T10, EphB4(h) (Homo sapiens, UniProt P54760)
T10 construct: purchased Millipore (KinaseProfiler service)
Procedure: as §1

Rse(h) = target: T11, Rse(h) (Homo sapiens, UniProt Q06418)
T11 construct: purchased Millipore (KinaseProfiler service)
Procedure: as §1

EGFR(T790M,L858R)(h) = target: T12, EGFR(T790M,L858R)(h) (Homo sapiens, UniProt P00533, L858R/T790M)
T12 construct: purchased Millipore (KinaseProfiler service)
Procedure: as §1

MSK2(h) = target: T13, MSK2(h) (Homo sapiens, UniProt O75676)
T13 construct: purchased Millipore (KinaseProfiler service)
Procedure: as §1

FGFR2(h) = FGFR2(h) (Homo sapiens, UniProt P21802)
Procedure: as §1

PDGFRα(V561D)(h) = PDGFRα(V561D)(h) (Homo sapiens, UniProt P16234, V561D)
Procedure: as §1

Ax1(h) = Ax1(h) (Homo sapiens, UniProt P30530)
Procedure: as §1

MuSK(h) = MuSK(h) (Homo sapiens, UniProt O15146)
Procedure: as §1

FGFR1(h) = target: T14, FGFR1(h) (Homo sapiens, UniProt P11362)
T14 construct: purchased Millipore (KinaseProfiler service)
T14 sequence (P11362 22-822): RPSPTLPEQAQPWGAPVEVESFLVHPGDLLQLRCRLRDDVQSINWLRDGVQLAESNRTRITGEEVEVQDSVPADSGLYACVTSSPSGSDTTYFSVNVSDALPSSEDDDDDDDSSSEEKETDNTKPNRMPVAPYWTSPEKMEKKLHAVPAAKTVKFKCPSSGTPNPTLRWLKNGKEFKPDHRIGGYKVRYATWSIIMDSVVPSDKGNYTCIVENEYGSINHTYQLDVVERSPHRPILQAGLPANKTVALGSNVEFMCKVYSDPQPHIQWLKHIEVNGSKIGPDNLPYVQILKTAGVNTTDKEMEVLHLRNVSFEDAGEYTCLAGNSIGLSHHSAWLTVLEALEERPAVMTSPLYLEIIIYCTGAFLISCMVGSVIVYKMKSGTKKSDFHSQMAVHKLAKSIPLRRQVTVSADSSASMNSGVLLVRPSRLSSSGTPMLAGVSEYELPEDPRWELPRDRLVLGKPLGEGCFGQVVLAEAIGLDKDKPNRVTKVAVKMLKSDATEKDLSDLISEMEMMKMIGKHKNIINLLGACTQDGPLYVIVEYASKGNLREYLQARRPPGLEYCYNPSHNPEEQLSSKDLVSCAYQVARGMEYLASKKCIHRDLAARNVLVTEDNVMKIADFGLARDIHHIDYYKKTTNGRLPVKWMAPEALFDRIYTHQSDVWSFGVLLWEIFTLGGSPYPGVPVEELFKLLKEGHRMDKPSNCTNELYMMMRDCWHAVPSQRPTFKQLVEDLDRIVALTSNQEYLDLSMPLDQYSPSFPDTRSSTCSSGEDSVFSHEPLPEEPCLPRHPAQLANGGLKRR
Procedure: as §1

Pim-2(h) = Pim-2(h) (Homo sapiens, UniProt Q9P1W9)
Procedure: as §1

PAK4(h) = PAK4(h) (Homo sapiens, UniProt O96013)
Procedure: as §1

Tie2(h) = target: T15, Tie2(h) (Homo sapiens, UniProt Q02763)
T15 construct: purchased Millipore (KinaseProfiler service)
Procedure: as §1

PKCμ(h) = PKCμ(h) (Homo sapiens, UniProt Q15139)
Procedure: as §1

BrSK1(h) = BrSK1(h) (Homo sapiens, UniProt Q8TDC3)
Procedure: as §1

Lck(h) activated = Lck(h) activated (Homo sapiens, UniProt P06239)
Procedure: as §1

MARK1(h) = target: T16, MARK1(h) (Homo sapiens, UniProt Q9P0L2)
T16 construct: purchased Millipore (KinaseProfiler service)
T16 sequence (Q9P0L2 whole entry): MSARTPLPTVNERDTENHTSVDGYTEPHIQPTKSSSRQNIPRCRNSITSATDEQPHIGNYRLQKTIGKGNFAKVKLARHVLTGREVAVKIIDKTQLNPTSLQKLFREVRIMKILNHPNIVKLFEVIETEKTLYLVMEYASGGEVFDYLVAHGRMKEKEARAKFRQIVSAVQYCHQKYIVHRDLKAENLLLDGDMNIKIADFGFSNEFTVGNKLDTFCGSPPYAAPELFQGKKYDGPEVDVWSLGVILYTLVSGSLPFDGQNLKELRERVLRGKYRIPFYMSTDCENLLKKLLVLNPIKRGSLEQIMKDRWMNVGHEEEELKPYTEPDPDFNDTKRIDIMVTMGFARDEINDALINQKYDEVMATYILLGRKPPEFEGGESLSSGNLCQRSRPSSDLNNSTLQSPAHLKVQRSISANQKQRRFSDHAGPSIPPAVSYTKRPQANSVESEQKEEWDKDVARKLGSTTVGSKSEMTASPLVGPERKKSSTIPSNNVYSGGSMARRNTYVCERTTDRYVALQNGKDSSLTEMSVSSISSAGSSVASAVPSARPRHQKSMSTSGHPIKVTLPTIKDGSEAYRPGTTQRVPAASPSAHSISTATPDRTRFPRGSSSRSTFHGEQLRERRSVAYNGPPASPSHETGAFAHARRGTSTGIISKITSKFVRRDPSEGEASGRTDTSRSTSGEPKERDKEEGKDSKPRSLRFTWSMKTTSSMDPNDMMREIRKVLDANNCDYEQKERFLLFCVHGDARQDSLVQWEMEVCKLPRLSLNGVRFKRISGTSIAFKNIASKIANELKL
Procedure: as §1

ASK1(h) = ASK1(h) (Homo sapiens, UniProt Q99683)
Procedure: as §1

Ab1(h) = Ab1(h) (Homo sapiens, UniProt P00519)
Procedure: as §1

EGFR(L861Q)(h) = target: T17, EGFR(L861Q)(h) (Homo sapiens, UniProt P00533, L861Q)
T17 construct: purchased Millipore (KinaseProfiler service)
Procedure: as §1

Syk(h) = target: T18, Syk(h) (Homo sapiens, UniProt P43405)
T18 construct: purchased Millipore (KinaseProfiler service)
Procedure: as §1

SAPK2b(h) = target: T19, SAPK2b(h) (Homo sapiens, UniProt Q15759)
T19 construct: purchased Millipore (KinaseProfiler service)
Procedure: as §1

Question: How did the Activity % (SAPK2a(h)) turn out when `Cc1cc2c(F)c(Oc3nc(Nc4cc(C5CC5)[nH]n4)cc(N4CCN(C)CC4)n3)cc(F)c2[nH]1` [NTW-3475] was run?
Answer: 79%

Question: What about the Activity % (EGFR(h)) of the same molecule?
Answer: 108%

Question: And the Activity % (Mer(h))?
Answer: 2%

Question: And the Activity % (PKBβ(h))?
Answer: 97%

Question: And the Activity % (SGK2(h))?
Answer: 107%

Question: And the Activity % (Pim-1(h))?
Answer: 114%

Question: What about the Activity % (Lyn(h)) of the same molecule?
Answer: 5%

Question: And the Activity % (CaMKIV(h))?
Answer: 106%

Question: What about the Activity % (Rsk4(h)) of the same molecule?
Answer: 66%

Question: And the Activity % (MLK1(h))?
Answer: 7%

Question: What about the Activity % (LIMK1(h)) of the same molecule?
Answer: 15%

Question: And the Activity % (ALK4(h))?
Answer: 28%

Question: What about the Activity % (CDK9/cyclin T1(h)) of the same molecule?
Answer: 52%

Question: And the Activity % (DCAMKL2(h))?
Answer: 87%

Question: What about the Activity % (TrkA(h)) of the same molecule?
Answer: 2%

Question: What about the Activity % (MST2(h)) of the same molecule?
Answer: 79%

Question: What about the Activity % (ROCK-II(r)) of the same molecule?
Answer: 42%

Question: What about the Activity % (Src(1-530)(h)) of the same molecule?
Answer: −2%

Question: And the Activity % (EphB4(h))?
Answer: 14%

Question: What about the Activity % (Rse(h)) of the same molecule?
Answer: 55%

Question: What about the Activity % (EGFR(T790M,L858R)(h)) of the same molecule?
Answer: 17%

Question: And the Activity % (MSK2(h))?
Answer: 90%

Question: What about the Activity % (FGFR2(h)) of the same molecule?
Answer: 0%

Question: What about the Activity % (PDGFRα(V561D)(h)) of the same molecule?
Answer: 8%

Question: What about the Activity % (Ax1(h)) of the same molecule?
Answer: 34%

Question: And the Activity % (MuSK(h))?
Answer: 48%

Question: What about the Activity % (FGFR1(h)) of the same molecule?
Answer: −1%

Question: What about the Activity % (Pim-2(h)) of the same molecule?
Answer: 96%

Question: What about the Activity % (PAK4(h)) of the same molecule?
Answer: 70%

Question: What about the Activity % (Tie2(h)) of the same molecule?
Answer: 0%

Question: And the Activity % (PKCμ(h))?
Answer: 95%

Question: What about the Activity % (BrSK1(h)) of the same molecule?
Answer: 53%

Question: What about the Activity % (Lck(h) activated) of the same molecule?
Answer: −1%

Question: And the Activity % (MARK1(h))?
Answer: 28%

Question: What about the Activity % (ASK1(h)) of the same molecule?
Answer: 112%

Question: What about the Activity % (Ab1(h)) of the same molecule?
Answer: −9%

Question: And the Activity % (EGFR(L861Q)(h))?
Answer: 52%

Question: What about the Activity % (Syk(h)) of the same molecule?
Answer: 84%

Question: What about the Activity % (SAPK2b(h)) of the same molecule?
Answer: 103%
